Data on two compounds can be found in patent publication US20230270802A1, “ANTIVIRAL PHARMACEUTICAL COMPOSITION” (GSK CONSUMER HEALTHCARE SARL, priority 2020, published 2023).

What all share (type): cell-based
Series [1] has as its system MucilAir nasal human 3D epithelial model. Kind of series: Cilia beating frequency (CBF), Example 1. The settings on record: T96h, OC43 infected inserts; Mock 8.5 Hz. How it is done: Cilia beating frequency (CBF) is a parameter that indicates if the nasal epithelia is healthy and carrying out its physiologic function of mucus transport. CBF was measured by a dedicated setup for this purpose. The system consists of three parts: a Sony XCD V60 camera connected to an Olympus BX51 microscope, a PCI card and a specific package of software. The cilia beating frequency is expressed in Hz. […] CBF was then calculated using relevant software. It should be pointed out that CBF values may be subject to fluctuations due to parameters such as temperature, mucus viscosity or liquid applied on the apical surface of the cell model and observed values should be compared to a control condition in each experiment.
At T96h, the ciliary beating frequency (CBF) and the mucociliary clearance (MCC) of all inserts were measured. 200 µl of culture medium was added apically to all inserts and inserts were let sit for 20 minutes at 34° C. During this time, TEER of all inserts was measured. This apical washing liquid was then removed and was stored at -80° C. until the virus copy number was determined. The basal culture medium was removed and stored. 50 µl of the basal culture medium of all inserts was used for the LDH assay.

For the next series, the system named is human coronavirus OC43. Kind of series: OC43 viral genome copy number in MucilAir nasal epithelium, Example 1. The note with it: for Mean viral genome copy number, Log 10 ((Copies/ml) + 1): apical wash, 0.00 = below detection limit.
Series [2] has as its system MucilAir nasal human 3D epithelial model. Kind of series: Trans-epithelial electronic resistance (TEER), Example 1. The note with it: all measured timepoints. From the text: Trans-epithelial electronic resistance (TEER) is a dynamic parameter that reflects the state of epithelia and is typically between 200 to 600 Ω.cm^2. An increase of the TEER value reflects a blockage of the ion channel activities of the MucilAir cell culture. A notable decrease of the TEER values, but with the value still above 100 Ω.cm^2 can be observed in certain cases and indicates an activation of the ion channels. Disruption of cellular junction or holes in the epithelia result in TEER values below 100 Ω.cm^2. When an epithelium is damaged, a decrease of TEER would be associated with an increase of LDH release or a decrease of the cell viability. In this example, TEER was measured after addition of 200 µl of culture medium to the apical compartment of the inserts (i.e. during the washing step). TEER was measured with an EVOMX volt-ohm-meter (World Precision Instruments UK, Stevenage) for each condition. Resistance values (Q) were converted to TEER (Ω.cm^2) using the following formula: TEER (Ω.cm^2) = (resistance value (Ω) - 100 (Ω)) x 0.33 (cm^2), where 100 Q is the resistance of the membrane and 0.33 cm^2 is the total surface of the epithelium in one insert. The TEER measurement was conducted as follows: 200µl of culture medium was added on apical surface of each insert. The EVOMX was turned on. […] Then, the resistance (Q) was measured with the EVOMX in the Ohms measurement function.

`N#C[C@@]1(c2ccc3c(N)ncnn23)O[C@H](CO)[C@@H](O)[C@H]1O` [Positive antiviral control, GS-441524]: in series [1], the “Cilia beating frequency (CBF)” value is “about 15 Hz”. Moreover, the “Mean viral genome copy number, Log 10 ((Copies/ml) + 1)” value with human coronavirus OC43 (T4h) is on record as 0.00 Log 10 ((Copies/ml) + 1); in the series on human coronavirus OC43 (T24h) it was 0.00 Log 10 ((Copies/ml) + 1); with human coronavirus OC43 (T48h) it was 0.00 Log 10 ((Copies/ml) + 1); with human coronavirus OC43 (T72h) it was 5.21 Log 10 ((Copies/ml) + 1); with human coronavirus OC43 (T96h), 4.69 Log 10 ((Copies/ml) + 1). Also, the “Apical genome copy number in comparison to negative control” value in the series with human coronavirus OC43 (each timepoint T24h - T96h) is “statistically significantly reduced”.

As for “Polyethylene glycol tert-octylphenyl ether [positive controls for cytotoxicity]”, in series [2], the TEER entry is “below 100 Ω.cm^2”.
